The results in this text go back to patent US20120245184A1 (Aderans Research Institute, Inc., priority 2006, published 2012).

Each structure is given as a SMILES string.

The test system of assay [1] is C57BL/6 male mice. Kind of assay: C57BL/6 hair growth after topical dosing. It counts as in vivo, mouse. The settings on record: dosed topically once on shaved lower back; visually graded for melanogenesis and hair regrowth. The protocol: (§1) A mouse model of male pattern baldness is used to investigate the effectiveness of the present compounds for growing hair. Agonists for the sonic hedgehog pathway that act by binding and activating Smoothened were tested in a formulation of 50:30:20 PG:EtOH:water or 5:95 DMSO:acetone vehicle. C57BL/6 male mice (48-52 days old on arrival) from Charles River Labs were used on the study. The mice were housed and cared for according to established procedures. Food and water were ad libitum. On Day 0, the mice were shaved on their lower back, an area of ˜1.5 inches×˜2 inches with Wahl clippers using a surgical blade. On day −3, the mice were anesthetized with isoflurane, their back was rinsed with a pad of 70% ethanol, a placebo pellet or a DHT pellet (2.5 mg 21 day pellet) were implanted subcutaneously between the shoulder blades with a 10 gauge trochar. DHT pellet transplantation results in maintenance of existing hair follicles in the resting (telogen) phase. The hole was stapled with a sterile autoclip and the mice were returned to their cage after awaking. The mice were dosed topically once and visually graded daily, except weekends, for melanogenesis and hair regrowth of fur in the dosed area (Table 4).

For assay [2], the system named is C57BL/6 male mice. Kind of assay: DHT-induced alopecia (mouse model of male pattern baldness). It counts as in vivo. The following applies: DHT pellet (2.5 mg 21 day) implanted subcutaneously; dosed topically once; visually graded for melanogenesis and hair regrowth. As to the method: as §1
In the absence of treatment with the present compounds, the follicles remain in telogen rather than following the normal time course of the mouse hair cycle.

Take `CN[C@H]1CC[C@H](N(Cc2cc(-c3ccc(S(C)(=O)=O)cc3)ccc2OC)C(=O)c2sc3ccccc3c2Cl)CC1`: the “C57BL/6 Hair Growth” value in the assay on C57BL/6 male mice [1] is recorded as “yes”. The “Androgenetic Alopecia” value in the assay with C57BL/6 male mice [2] is listed as “yes”.

On to `CN[C@H]1CC[C@H](N(Cc2cc(-c3cc(C)nc(C)c3)ccc2OC)C(=O)c2sc3ccccc3c2Cl)CC1`, for which the “C57BL/6 Hair Growth” value with C57BL/6 male mice [1] is reported as “yes”. In addition, in the assay with C57BL/6 male mice [2], the “Androgenetic Alopecia” value is listed as “yes”.

Regarding `CN[C@H]1CC[C@H](N(Cc2cc(-c3ccc(C(N)=O)cc3)ccc2OC)C(=O)c2sc3c(F)ccc(F)c3c2Cl)CC1`, the “C57BL/6 Hair Growth” value in the assay with C57BL/6 male mice [1] is “yes”. For the same compound, the “Androgenetic Alopecia” value in the assay with C57BL/6 male mice [2] was “yes”.

As for `CN[C@H]1CC[C@H](N(Cc2cc(-c3ccnc(C(=O)OC)c3)ccc2OC)C(=O)c2sc3c(F)ccc(F)c3c2Cl)CC1`, the “C57BL/6 Hair Growth” value with C57BL/6 male mice [1] was “yes”. The “Androgenetic Alopecia” value in the assay on C57BL/6 male mice [2] is recorded as “yes”.

As to `CN[C@H]1CC[C@H](N(Cc2cc(-c3ccccc3)ccc2OC)C(=O)c2sc3ccccc3c2Cl)CC1`, in the assay on C57BL/6 male mice [1], the “C57BL/6 Hair Growth” value is reported as “yes”. Further, the “Androgenetic Alopecia” value in the assay with C57BL/6 male mice [2] is on record as “yes”.

On to `CN[C@H]1CC[C@H](N(Cc2cc(-c3ccc(NS(C)(=O)=O)nc3)ccc2OC)C(=O)c2sc3c(F)ccc(F)c3c2Cl)CC1`, for which, in the assay with C57BL/6 male mice [1], the “C57BL/6 Hair Growth” value is “yes”.

Take `CN[C@H]1CC[C@H](N(Cc2cc(-c3ccnc(C(=O)N(C)C)c3)ccc2OC)C(=O)c2sc3c(F)ccc(F)c3c2Cl)CC1`: in the assay on C57BL/6 male mice [1], the “C57BL/6 Hair Growth” value is recorded as “yes”. Further, the “Androgenetic Alopecia” value in the assay with C57BL/6 male mice [2] is recorded as “yes”.

As to `CN[C@H]1CC[C@H](N(Cc2cc(-c3ccnc(C)c3)ccc2OC)C(=O)c2sc3ccccc3c2Cl)CC1`, the “C57BL/6 Hair Growth” value in the assay with C57BL/6 male mice [1] is on record as “yes”. Besides, the “Androgenetic Alopecia” value in the assay with C57BL/6 male mice [2] was “yes”.

As for `CN[C@H]1CC[C@H](N(Cc2cc(-c3ccc(N)nc3)ccc2OC)C(=O)c2sc3cccc(F)c3c2Cl)CC1` [drawing 702], the “C57BL/6 Hair Growth” value in the assay on C57BL/6 male mice [1] is given as “yes”. Besides, in the assay with C57BL/6 male mice [2], the “Androgenetic Alopecia” value is on record as “yes”.

Take `CN[C@H]1CC[C@H](N(Cc2cc(-c3ccncc3)ccc2OC)C(=O)c2sc3ccccc3c2Cl)CC1`: the “C57BL/6 Hair Growth” value in the assay with C57BL/6 male mice [1] is “yes”. The “Androgenetic Alopecia” value with C57BL/6 male mice [2] is reported as “yes”.
